From paper PMC4389225, “Triaminopyrimidine is a fast-killing and long-acting antimalarial clinical candidate” (Nature Communications, 2015)

Assays:
[1] = Acute anaesthetized guinea pig cardiovascular (CVS) model, compound 12; type: in vivo
Description: Male Dunkin Hartley guinea pigs (n=6 per group; 342–401 g; 4–5 weeks old; Charles River Laboratories, L’Arbresle, Cedex) were anaesthetized with sodium pentobarbitone (60 mg kg^−1 intraperitoneally followed by 6 mg kg^−1 h^−1 i.v. (jugular) for maintenance) and mechanically ventilated. Animals were surgically prepared for the measurement of haemodynamic (blood pressure, heart rate and contractility (including left ventricular pressure)) and electrocardiographic (ECG)-derived parameters (QTcB, PR interval and QRS duration). Briefly, catheters were introduced into a carotid artery and a jugular vein for the measurement of arterial blood pressure and administration of the test item, respectively. Needle electrodes were placed subcutaneously in a lead II position for ECG recording. A fluid-filled catheter was introduced into the left ventricle via the opposite carotid artery for left ventricular pressure measurement.
Animals received two consecutive i.v. infusions of either vehicle (group 1; 40% v/v dimethylacetamide/20% v/v polyethylene glycol 400/17% w/v hydroxyl propyl beta cyclodextrin (HPβCD/kleptose) in water for injection) or compound 12 at 10 or 30 mg kg^−1 (group 2). Each infusion lasted for 15 min at a dose volume of 3 ml kg^−1 (rate of 0.2 ml kg^−1 min^−1). Animals were monitored for a further 30-min washout period. Blood samples were taken at 5, 10 and 15 min after the start of each infusion and at 5, 10, 20 and 30 min during the washout phase.
Following a stabilization period, haemodynamic and ECG parameters were measured (using HEM software, version 4.3, Notocord Systems) at 10 and 5 min before administration (mean of measurements obtained at these time points=baseline; T0), and 2.5, 5, 10 and 15 min after the start of each i.v. infusion of compound 12 or vehicle and 5, 10, 20 and 30 min after the end of the second infusion. A detailed description of the model, its background and validation has been described earlier.
All parameters were analysed statistically using SAS software. Baseline values were defined as mean of measurments taken 10 or 5 min before dosing. For each parameter, homogeneity of baseline values (T0) between the two groups were tested using a two-tailed Student’s t-test. Changes from baseline were assessed using a two-way analysis of variance (group and time) with repeated measurements over the time and group × time interaction.
Anaesthetised Guinea Pig Cardiovascular toxicity study for compound 12. Group mean ±SEM data are presented in Supplementary Fig. 16a to 16l. Mean ± standard error plasma exposure data are illustrated in Supplementary Fig. 16m. The mean of the two control recording periods was used as a baseline value. Administration of vehicle produced the expected level of variability in cardiovascular parameters over the time course of this study.
This was considered within acceptable ranges for vehicle data. Actual changes caused by compound 12 were derived by subtracting the effect of the time-matched vehicle data and are discussed using mean % change from baseline values. All findings reported below achieved statistical significance (P < 0.05), unless indicated as a trend. Isolated incidences of statistical significance, that show no relation to compound effects, were not considered of […]
Blood pressure, LVP and heart rate effect: Following i.v. administration of compound 12 at 10 mg/kg, the following observations were noted:
- A 15% decrease in dP/dtmax (an index of cardiac contractility).
As the dose increased to 30 mg/kg, the following effects were observed:
- A 8% decrease in heart rate (HR), - A 10% decrease in left ventricular systolic pressure (LVsys), - A 27% decrease in dP/dtmax.
There was evidence of recovery for dP/dtmax during the 30 minutes wash-out period.
Despite attaining statistical significance, the magnitude of the effects on dP/dtmax at […]

[2] = Observed blood CL, mouse
[3] = test system: Pf; test: Predicted human efficacy (parasite load reduction); parameters: species or system Plasmodium falciparum
Description: The predicted human exposure after a single dose of 260 mg is likely to sustain the maximum kill rate observed in the Pf/SCID model for 4–6 days to achieve >3-log reduction in parasitemia (Supplementary Note 6, Supplementary Figs 12 and 13, and Supplementary Table 12). A patient with clinical symptoms of uncomplicated malaria may have 1–2% parasitemia in blood, which is equivalent to 11–12 log parasites in total, assuming 13 log erythrocytes in human blood. At a dose of 260 mg, compound 12 is predicted to maintain a constant kill rate over two life cycles (96 h) of the parasite to yield a 3 to 4-log reduction in the total parasite load. Therefore, a single-dose treatment with~500 mg might result in >8-log reduction in the parasite load. In a combination-based malaria therapy that is clinically practiced, an additive or synergistic effect of the partner drug with compound 12 is predicted to cure patients following a single-dose treatment.
Prediction of human PK profile. The predicted human CL and Vss estimates could be used for predicting human PK with a one compartment distribution. However, rat and dog IVPK profiles indicated a two compartment distribution. Parameters for the two compartment distribution in human were predicted by Wajima transformation8 of rat and dog IVPK […]
CLd, Vt and Vc estimates, assuming similar Ka (0.3/h) and F (0.7) as observed in rats (supplementary Fig. 12 ).
Predicted human PK parameters are shown in supplementary Table 12. Human CL estimates predicted by the FCIM method and IVIVE (3.8 ml/min/kg) were identical. The […]
Human efficacy was predicted after treatment of 70 kg adult with a single 260 mg dose, assuming 2% parasitemia at the onset of treatment and assuming one compartment distribution of 12 in humans (supplementary Fig. 13). Similar efficacy was predicted if 12 was distributed in two compartments.

Structure (SMILES): Cc1nc(Nc2ncc(N3CCN(C)[C@H](C)C3)c(Nc3cc(C)n(C)n3)n2)cc(C2CC2)c1F [compound 12, (R)-N2-(4-cyclopropyl-5-fluoro-6-methylpyridin-2-yl)-N4-(1,5-dimethyl-1H-pyrazol-3-yl)-5-(3,4-dimethylpiperazin-1-yl)pyrimidine-2,4-diamine]
- PR interval, QRS duration and QTcB interval ([1]; 10 mg/kg i.v.): unaffected
- decrease in dP/dtmax (index of cardiac contractility) ([1]; 10 mg/kg i.v., vehicle-corrected mean % change from baseline): 15%
- decrease in heart rate (HR) ([1]; 30 mg/kg i.v.): 8%
- decrease in left ventricular systolic pressure (LVsys) ([1]; 30 mg/kg i.v.): 10%
- increase in QTcB ([1]; 30 mg/kg i.v.): 7%
- decrease in dP/dtmax ([1]; 30 mg/kg i.v., vehicle-corrected mean % change from baseline): 27%
- A—plasma Cmax free ([1]; guinea pig, 10 mg kg^−1 i.v.): 90 nM
- Safety margin (A/B)-free Cmax ([1]; guinea pig, 10 mg kg^−1 i.v.): 10.3
- Summary of clinical signs and effects ([1]; guinea pig, 10 mg kg^−1 i.v., NOEL = no observed effect level): NOEL
- Peak total plasma concentration ([1]; guinea pig, 10 mg/kg i.v.): 1.69 ± 0.15 µmol/L
- A—plasma Cmax free ([1]; guinea pig, 30 mg kg^−1 i.v.): 280 nM
- Safety margin (A/B)-free Cmax ([1]; guinea pig, 30 mg kg^−1 i.v.): 32.2
- Summary of clinical signs and effects ([1]; guinea pig, 30 mg kg^−1 i.v.): Contractility and QTcB effects
- Peak total plasma concentration ([1]; guinea pig, 30 mg/kg i.v.): 5.05 ± 0.64 µmol/L
- NOEL ([1]; guinea pig, i.v.): 10 mg/kg
- Observed blood CL ([2]; Mouse): 32-35 % LBF
- clearance ([2]; mouse, blood): 48 to 53 mL/min/kg
- predicted reduction in the total parasite load ([3]; 260 mg, two life cycles (96 h)): 3 to 4 log
- predicted reduction in parasitemia ([3]; single dose of 260 mg, 4–6 days): > 3 log
- predicted reduction in the parasite load ([3]; single dose ~500 mg): > 8 log
